Data reported in US9296755B2, “3,4-dihydro-1H-pyrimido[1,6-a]pyrimidin-6(2H)-one compounds and their therapeutic applications” (GlaxoSmithKline Intellectual Property Development Limited, priority 2013, dated 2016).

What was measured:
[1] = biological target: T1, recombinant human Lp-PLA2 (Homo sapiens, UniProt Q13093); test: Recombinant human Lp-PLA2 assay (rhLp-PLA2, PED6 assay); format: biochemical; details: recombinant human Lp-PLA2, PED6 substrate; read-out: rhLp-PLA2 (PED6 assay) (pIC50) (converted)
T1 sequence (Q13093 22-441): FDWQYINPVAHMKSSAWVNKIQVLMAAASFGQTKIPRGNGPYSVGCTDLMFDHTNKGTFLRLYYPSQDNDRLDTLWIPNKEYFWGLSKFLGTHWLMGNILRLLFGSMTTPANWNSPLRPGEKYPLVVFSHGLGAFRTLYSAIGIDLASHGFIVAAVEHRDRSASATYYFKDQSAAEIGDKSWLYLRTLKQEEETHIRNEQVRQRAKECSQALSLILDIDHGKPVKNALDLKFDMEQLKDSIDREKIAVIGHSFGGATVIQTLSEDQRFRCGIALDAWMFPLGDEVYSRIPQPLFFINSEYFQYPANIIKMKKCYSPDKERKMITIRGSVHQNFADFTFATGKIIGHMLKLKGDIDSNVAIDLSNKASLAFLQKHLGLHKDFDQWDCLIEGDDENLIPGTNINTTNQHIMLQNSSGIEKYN
Text: (1) Recombinant Human Lp-PLA2 Assay (rhLp-PLA2) (Also Referred to as “PED6” Assay)
N-((6-(2,4-dinitrophenyl)amino)-hexanoyl)-2-(4,4-difluoro-5,7-dimethyl-4-bora-3a,4a-diaza-s-indacene-3-pentanoyl)-1-hexadecanoyl-sn-glycero-3-phosphoethanolamine, triethylammonium salt (PED6) is a commercially available fluorescently-labeled phospholipid, which is commercially available from Invitrogene and Molecular Probes. There is a quenching […] and a Bodipy fluorescein (FL) group in the sn2 position. Upon cleavage with Lp-PLA2, the Bodipy FL group is liberated and then may result in an increase in fluorescence. Inhibitors of Lp-PLA2 therefore prevent this cleavage and no fluorescent increase is observed.
The PED6 assay was run as an unquenched 10 μL assay. The source plate containing the compounds to be tested was prepared by making 1:3 (by volume) serial dilution of the compounds within DMSO on 384-well microplate. Then, 0.01 μL of the compounds on compound source plate were transferred into 384 well Greiner 784076 (black) plates using ECHO liquid dispenser. 5 μL of recombinant human Lp-PLA2 enzyme (4 nM (or 110 pM) rhLp-PLA2 in assay buffer of 50 mM HEPES, pH 7.4, 150 mM NaCl, 1 mM CHAPS) was added to each well of the plate. Plates were centrifuged for 10 sec at 500 rpm. After 30 minutes preincubation, 5 μL of substrate (4 μM (or 5 μM) PED6 [from 5 mM DMSO stock] in assay buffer of 50 mM HEPES, pH 7.4, 150 mM NaCl, 1 mM CHAPS) was added to 384 well Greiner 784076 (black) plates. Plates were centrifuged for 10 sec at 500 rpm. The plate was covered to protect it from light and incubated for 20 min at room temperature. The plates were read for fluorescence intensity at ex: 480/em: 540 using ViewLux microplate imager for Envision spectrofluroimeters. PIC50 data, curve and QC analysis was conducted by using XL fit module in Excel.

[2] = biological target: T2, Lp-PLA2 in human plasma (Homo sapiens, UniProt Q13093); test: Lp-PLA2 human plasma assay (Thio-PAF assay); format: biochemical; details: pooled human plasma; read-out: pIC50 in the thio-PAF assay (converted)
T2 construct: from tissue; host or cells: pooled human plasma
T2 sequence (Q13093 22-441): T1 sequence (Q13093 22-441)
Text: (3) Lipoprotein-Associated Phospholipase A2 (Lp-PLA2) Human Plasma Assay (Also Referred to as “Thio-PAF Assay”)
The human plasma assay utilizes a thioester analog of PAF (phosphatidylcholine), where hydrolysis yields to the formation of a phospholipid containing a free thiol group. The amount of thiol is quantitated continuously by reacting with CPM (7-diethylamino-3-(4′-maleimidylphenyl)-4-methylcoumarin), a maleimide which increases in fluoresence after Michael addition of thiols. This assay may detect the activity of Lp-PLA2 in human plasma, as determined by specific inhibition by Lp-PLA2 inhibitors.
The thio-PAF assay was run as a quenched 15 μL assay. Compounds source plate was prepared by making 1:3 (by volume) serial dilution of the compounds into pure DMSO on 384-well microplate. 0.01 μL of compounds on compound source plate were transferred to 384 well Greiner 784076 (black) low-volume plates by ECHO liquid dispenser. 8 μL pooled human plasma, which was previously aliquoted and frozen, was added. Plates were centrifuged for 10 sec at 500 rpm. After 30 minutes preincubation, 2 μL of substrate solution comprising 2.5 mM 2-thio-PAF [from ethanol stock], 32 μM CPM [from a DMSO stock] and 3.2 mM NEM (N-ethylmaleimide) [made fresh daily in DMSO] in assay buffer of 50 mM HEPES, pH 7.4, 150 mM NaCl, 1 mM CHAPS was added to 384 well Greiner 784076 (black) low-volume plates by BRAVO liquid handling station. After 2 mins, reaction was quenched with 5 μL of 5% aqueous trifluoroacetic acid (TFA). Plates were covered to protect from light and incubated for 40 min at room temperature. Plates were read at ex: 380/em: 485 using Envision microplate reader. PIC50 data, curve and QC analysis were conducted by using XLFit module in Excel.

With O=c1nc(OCc2ccc(Oc3ccc(Cl)c(C(F)(F)F)c3)c(F)c2)cc2n1CCCN2C1CC1 [Example E8, 8-((4-(4-chloro-3-(trifluoromethyl)phenoxy)-3-fluorobenzyl)oxy)-1-cyclopropyl-3,4-dihydro-1H-pyrimido[1,6-a]pyrimidin-6(2H)-one] the IC50 [1] was 0.501 nM and the IC50 [2] was at most 100 nM.

Compound O=C(CN1CCCn2c1cc(OCc1ccc(F)c(F)c1)nc2=O)N1CCCCC1 [Example E21, 8-((3,4-difluorobenzyl)oxy)-1-(2-oxo-2-(piperidin-1-yl)ethyl)-3,4-dihydro-H-pyrimido[1,6-a]pyrimidin-6(2H)-one] has an IC50 [2] of at most 100 nM.

Compound O=C(CN1CCCn2c1cc(OCc1cc(F)c(F)c(F)c1)nc2=O)N1CCOCC1 [Example E16, 1-(2-morpholino-2-oxoethyl)-8-((3,4,5-trifluorobenzyl)oxy)-3,4-dihydro-1H-pyrimido[1,6-a]pyrimidin-6(2H)-one] has an IC50 [1] of 0.501 nM and an IC50 [2] of at most 100 nM.

Compound O=c1nc(OCc2ccc(Oc3cccc(C(F)(F)F)c3)c(F)c2)cc2n1CCCN2C1CC1 [Example E9, 1-cyclopropyl-8-((3-fluoro-4-(3-(trifluoromethyl)phenoxy)benzyl)oxy)-3,4-dihydro-1H-pyrimido[1,6-a]pyrimidin-6(2H)-one] has an IC50 [2] of at most 100 nM.

CCCNC(=O)CN1CCCn2c1cc(OCc1cc(F)c(F)c(F)c1)nc2=O [Example E24, 2-(6-oxo-8-((3,4,5-trifluorobenzyl)oxy)-2,3,4,6-tetrahydro-1H-pyrimido[1,6-a]pyrimidin-1-yl)-N-propylacetamide] gave an IC50 [2] of at most 100 nM.

O=c1nc(OCc2ccc(F)c(F)c2)cc2n1CCCN2Cc1ccccc1 [Example E1, 1-benzyl-8-((3,4-difluorobenzyl)oxy)-3,4-dihydro-1H-pyrimido[1,6-a]pyrimidin-6(2H)-one] was tested, and the IC50 [2] was at most 100 nM.

In the case of O=C(CN1CCCn2c1cc(OCc1ccc(F)c(F)c1)nc2=O)N1CCC(F)CC1 [Example E23, 8-((3,4-difluorobenzyl)oxy)-1-(2-(4-fluoropiperidin-1-yl)-2-oxoethyl)-3,4-dihydro-1H-pyrimido[1,6-a]pyrimidin-6(2H)-one], the IC50 [1] is reported as 0.794 nM and the IC50 [2] is reported as at most 100 nM.

In the case of CNC(=O)CN1CCCn2c1cc(OCc1ccc(F)c(F)c1)nc2=O [Example E17], the IC50 [2] is reported as at most 100 nM.

For COc1cccc(CN2CCCn3c2cc(OCc2ccc(F)c(F)c2)nc3=O)c1 [Example E6, 8-((3,4-difluorobenzyl)oxy)-1-(3-methoxybenzyl)-3,4-dihydro-1H-pyrimido[1,6-a]pyrimidin-6(2H)-one], the IC50 [1] was 1.58 nM and the IC50 [2] was at most 100 nM.

Compound CN1CCN(C(=O)CN2CCCn3c2cc(OCc2ccc(F)c(F)c2)nc3=O)CC1 [Example E19, 8-((3,4-difluorobenzyl)oxy)-1-(2-(4-methylpiperazin-1-yl)-2-oxoethyl)-3,4-dihydro-1H-pyrimido[1,6-a]pyrimidin-6(2H)-one] has an IC50 [1] of 0.316 nM and an IC50 [2] of at most 100 nM.

With O=C(CN1CCCn2c1cc(OCc1cc(F)c(F)c(F)c1)nc2=O)N1CCCC1 [Example E14, 1-(2-oxo-2-(pyrrolidin-1-yl)ethyl)-8-((3,4,5-trifluorobenzyl)oxy)-3,4-dihydro-1H-pyrimido[1,6-a]pyrimidin-6(2H)-one] the IC50 [2] was at most 100 nM.

O=C(CN1CCCn2c1cc(OCc1ccc(F)c(F)c1)nc2=O)N1CCCC1 [Example E18, 8-((3,4-difluorobenzyl)oxy)-1-(2-oxo-2-(pyrrolidin-1-yl)ethyl)-3,4-dihydro-1H-pyrimido[1,6-a]pyrimidin-6(2H)-one] was tested, and the IC50 [2] was at most 100 nM.

Work on O=c1nc(OCc2ccc(F)c(F)c2)cc2n1CCCN2Cc1ccc(Cl)cc1 [Example E2, 1-(4-chlorobenzyl)-8-((3,4-difluorobenzyl)oxy)-3,4-dihydro-1H-pyrimido[1,6-a]pyrimidin-6(2H)-one] yielded an IC50 [1] of 0.631 nM.

O=c1nc(OCc2ccc(F)c(F)c2)cc2n1CCCN2Cc1ccc(F)cc1 [Example E3, 8-((3,4-difluorobenzyl)oxy)-1-(4-fluorobenzyl)-3,4-dihydro-1H-pyrimido[1,6-a]pyrimidin-6(2H)-one] was tested, and the IC50 [2] was at most 100 nM.
